According to patent US20160177395A1, “BIOMARKERS FOR THE PREDICTION OF RENAL INJURY” (priority 2007, published 2016):
“And” between values parts separate entries of the source, which are not always exact repeats. Equal entries are not always repeated.

What was measured:
[1] = test system: kidney tissues of treated or untreated rats; assay: Real-time qRT-PCR of marker transcripts in kidney tissue panel, discovery stage (Table 22); assay type: in vivo, rat; conditions: rat kidney, listed as Dox
Experimental: Before RT preparation the RNA was treated with DNA-free (Ambion, cat. No. AM1906) DNase treatment and removal—according to manufacturer protocol. DNase procedure was repeated until no DNA is detected in a PCR reaction using the RNA samples.
The mixture is then incubated for 5 min at 65° C. and then quickly chilled on ice. Thereafter, 20 μl of 5× SuperscriptII first strand buffer (Invitrogen, Cat. No. Y00146), 9.6 μl 0.1M DTT (Invitrogen, Cat. No. Y00147) and 160 units RNasin (Promega, Cat. No. N251A) are added, and the mixture is incubated for 10 min at 25° C., followed by further incubation at 42° C. for 2 min. […] The resulting cDNA is diluted 1:20 in TE buffer (10 mM Tris pH=8, 1 mM EDTA pH=8).
cDNA (5 μl), prepared as described above, is used as a template in Real-Time PCR reactions using the SYBR Green I assay (PE Applied Biosystem) with specific primers in 100 nM concentration if not indicated otherwise and UNG Enzyme (Eurogentech or equal) Amplification is effected as follows: 50° C. for 2 min, 95° C. for 10 min, and then 40 cycles of 95° C. for 15 sec, followed by 60° C. for 1 min (if not indicated otherwise). Amplification step is followed by dissociation step. Detection is performed by using the PE Applied Biosystem SDS 7000. The cycle in which the reactions achieved a threshold level (Ct) of fluorescence is registered and is used to calculate the relative transcript quantity in the RT reactions. Non-detected samples are assigned Ct value of 41 and are calculated accordingly. The relative quantity is calculated using the equation Q=efficiencŷ-Ct. The efficiency of the PCR reaction is calculated from a standard curve, created by using serial dilutions of several reverse transcription (RT) reactions. To minimize inherent differences in the RT reaction, the resulting relative quantities are normalized to normalization factor calculated as follows: […]
The relative quantity (Q) of each housekeeping gene in each sample is calculated as described above. In order to calculate the “relative Q relative to MED” each Q for each HSKP gene is divided by the median quantity of this gene in all panel samples. To finally achieve the normalization factor of each sample the geometric mean of all four “relative Q relative to MED” was calculated. The normalization factor was then used for further calculations.
The markers of the present invention were tested with regard to their expression in a panel of kidney tissues samples from treated and control rats. Unless otherwise noted, all experimental data relates to the novel polynucleotides and proteins of the present invention, named according to the segment being tested (as expression was tested through RT-PCR as described). Tests were then performed as described in the “Materials and Experimental Procedures” section above.
The qRT-PCR measurements were normalized according to each samples normalization factor as described in “RT Preparation and Real-Time qRT-PCR Analysis” and further multiplied by a constant factor for ease of viewing.

[2] = test system: kidney tissues of treated or untreated rats; assay: Real-time qRT-PCR of signature amplicons, validation stage, labeled and un-labeled samples (Table 23); conditions: for H31883_DB71_seg13 normalized qRT-PCR result / MUSCYCG1R_DB81_seg19-20 normalized qRT-PCR result / W41270_DB81_seg11 normalized qRT-PCR result: labeled sample, one line per animal
Description: New primers were designed for part of the transcripts, and new conditions for several qRT-PCR reactions were used, as described below.
The measurements were normalized in two steps. First—according to the house-keeping-genes normalization factor, and second—each plate was normalized according to ratio of the intensity measurements from samples appearing in it and in the shuffled (normalization) plate (Table 25 provides the plates details and the section “Inter-Plate Normalization” provides details of the normalization process). The normalized values were further scaled by a factor, for ease of viewing.
RT was prepared and qRT-PCR performed and analyzed as described hereinabove. qRT-PCR was performed for the four genes comprising the signature of the discovery stage described in Table 13. Two amplicons were tested for each gene—one representing the wild-type transcript, and another representing an alternative splice variant. Each amplicon was measured using the labeled samples described in Table 9 herein, as well as the un-labeled samples. Samples from both groups (labeled and un-labeled) were tested in seven 96 well plates as described in Table 25. In order to correct possible run to run variations, the following controls were added: 1. several samples were repeated in all 96 wells plates; 2. control shuffled plate was designed which combined samples from all seven test plates.
To account for possible differences of qRT-PCR measurements between the different plates due to experimental artifacts, a normalization plate was planned. This plate, designated hereinabove ‘shuffled plate’, contained samples from all other plates. Real Time PCR was performed on this plate using the primers appropriate for all candidates in tables 26 and 27. For each other plate (plates 1-7 above) and each amplicon, the samples appearing also in the shuffled plate were examined—the ratio between the transcript abundance as measured in the plate to the abundance as measured in the shuffled plate was calculated, outliers were manually removed, and the geometric mean of the left ratios was taken as an additional multiplicative normalization factor for the plate and amplicon.

[3] = day28, individual animals (F and M)
[4] = day1, female rat kidney, listed as Dox
[5] = day1, male rat kidney, listed as Dox
[6] = day28, female rat kidney, listed as Dox
[7] = day28, male rat kidney, listed as Dox
[8] = labeled samples, day1, kidney of individual male/female rats, listed as Dox
[9] = labeled samples, day5, kidney of individual male/female rats, listed as Dox
[10] = labeled samples, day28, kidney of individual male/female rats, listed as Dox

COc1cccc2c1C(=O)c1c(O)c3c(c(O)c1C2=O)C[C@@](O)(C(=O)CO)C[C@@H]3O[C@H]1C[C@H](N)[C@H](O)[C@H](C)O1 [Doxorubicin]
RATRAB13X_DB71_seg11-13 normalized Real Time PCR [1, 3]: 0.74 and 0.95 and 1.05 and 0.91 and 0.77 and 0.84 | RNU24174_DB71_seg8 normalized Real Time PCR [1, 3]: 1.99 and 2.06 and 4.39 and 3.5 and 2.2 and 2.91 | W41270_DB81_seg11 normalized Real Time PCR [1, 3]: 0.84 and 0.44 and 0.77 and 1.64 and 0.54 and 0.5 | W64472_DB81_seg2 normalized Real Time PCR [1, 3]: 0.8 and 0.69 and 1.73 and 1.71 and 0.83 and 1.15 | W83813_DB81_seg27 normalized Real Time PCR [1, 3]: 0.58 and 0.61 and 0.63 and 0.51 (2×) and 0.55 | AA686189_DB71_seg6 normalized Real Time PCR expression ([1]; day28, individual animals): 1.5 and 0.62 and 0.04 and 6.37 and 0.92 and 1.28 | AI045075_DB71_seg6 normalized Real Time PCR expression ([1]; day28, individual animals): 0.66 and 0.82 and 1.6 and 1.49 and 0.9 and 0.87 | AI454051_DB71_seg0 normalized Real Time PCR expression ([1]; day28, individual animals): 0.85 and 0.92 and 0.87 and 0.96 and 1.11 and 0.72 | H31045_DB71_seg5 normalized Real Time PCR expression ([1]; day28, individual animals): 2.16 and 2.58 and 0.51 and 1.57 and 2.33 and 2.12 | H31883_DB71_seg13 normalized qRT-PCR result [2, 4]: 2.054 and 1.752 and 1.003 | MUSCYCG1R_DB81_seg19-20 normalized qRT-PCR result [2, 4]: 1.631 and 1.268 and 0.741 | W41270_DB81_seg11 normalized qRT-PCR result [2, 4]: 1.548 and 1.367 and 0.977 | H31883_DB71_seg13 normalized qRT-PCR result [2, 5]: 0.956 and 0.936 and 0.964 | MUSCYCG1R_DB81_seg19-20 normalized qRT-PCR result [2, 5]: 1.257 and 1.622 and 1.454 | W41270_DB81_seg11 normalized qRT-PCR result [2, 5]: 1.26 and 2.478 and 1.45 | H31883_DB71_seg13 normalized qRT-PCR result [2, 6]: 0.734 and 0.719 and 0.955 | MUSCYCG1R_DB81_seg19-20 normalized qRT-PCR result [2, 6]: 0.964 and 0.653 and 0.54 | W41270_DB81_seg11 normalized qRT-PCR result [2, 6]: 2.157 and 1.462 and 1.023 | H31883_DB71_seg13 normalized qRT-PCR result [2, 7]: 0.686 and 0.442 and 0.586 | MUSCYCG1R_DB81_seg19-20 normalized qRT-PCR result [2, 7]: 0.669 and 1.434 and 0.785 | W41270_DB81_seg11 normalized qRT-PCR result [2, 7]: 1.613 and 3.226 and 1.604 | H31883_DB71_seg13 normalized qRT-PCR expression (Cyclin-G1 (CCNG1) transcript) [2, 8]: 0.993 and 1.283 and 1.41 and 1.46 and 1.116 | MUSCYCG1R_DB81_seg19-20 normalized qRT-PCR expression [2, 8]: 1.387 and 1.761 and 2.256 and 1.516 and 1.627 and 1.551 | W41270_DB81_seg11 normalized qRT-PCR expression (tumor necrosis factor receptor superfamily, member 12a transcript) [2, 8]: 0.824 and 1.286 and 1.43 and 1.148 and 1.501 and 0.935 | AI045075_DB71_seg6 normalized qRT-PCR expression (Interferon stimulated exonuclease 20 (ISG20) transcript) [2, 9]: 1.248 and 1.348 and 1.319 and 1.844 | H31883_DB71_seg13 normalized qRT-PCR expression (Cyclin-G1 (CCNG1) transcript) [2, 9]: 2.129 and 0.905 and 2.586 and 1.227 and 1.377 | MUSCYCG1R_DB81_seg19-20 normalized qRT-PCR expression [2, 9]: 1.321 and 1.723 and 1.536 and 2.913 and 1.438 | W41270_DB81_seg11 normalized qRT-PCR expression (tumor necrosis factor receptor superfamily, member 12a transcript) [2, 9]: 1.017 and 1.053 and 1.551 and 1.791 and 0.851 | W64472_DB81_seg2 normalized qRT-PCR expression (Interferon stimulated exonuclease 20 (ISG20) transcript) [2, 9]: 2.03 and 2.924 and 1.441 and 3.4 and 2.561 | H31883_DB71_seg13 normalized qRT-PCR expression (Cyclin-G1 (CCNG1) transcript) [2, 10]: 1.328 and 1.54 and 1.434 and 1.642 and 1.611 and 1.408 | MUSCYCG1R_DB81_seg19-20 normalized qRT-PCR expression [2, 10]: 0.985 and 2.342 and 1.437 and 1.991 and 2.105 and 1.779 | W41270_DB81_seg11 normalized qRT-PCR expression (tumor necrosis factor receptor superfamily, member 12a transcript) [2, 10]: 1.263 and 0.73 and 2.381 and 1.44 and 0.652 and 0.787 | Label: true label (Normal/Toxic), known renal toxic effect ([2]; rat, in vivo): Toxic
